# Test results taken from patent publication US12729377B2, “RNAi agents and compositions for inhibiting expression of angiopoietin-like 3 (ANGPTL3), and methods of use” (Arrowhead Pharmaceuticals, Inc., priority 2017, dated 2026).
# In the oligonucleotide strings, read from the 5' end, every base follows the letter of its sugar. An asterisk marks phosphorothioate; unmarked linkages are phosphodiester. Other units and linkages are bracketed, terminal groups are in braces. A string of capitals states the bases alone. {NAG37} = tridentate N-acetyl-galactosamine targeting ligand, structure (NAG37)s; [invAb] = inverted abasic unit; m = 2'-O-methyl; f = 2'-fluoro
# Key:
# ANGPTL3 gene [1] = assay: Example 7: serum triglycerides in mice; assay type: in vivo, C57bl/6 mice; parameters: key: ratio: (level/pre-treatment day -1 level) ÷ mean of D5W control group
# How it was run: (§1)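 Female C57bl/6 mice (6–8 weeks, n=3) received a single subcutaneous dose of 0.5 mg/kg GalNAc-conjugated RNAi agent or D5W vehicle. Serum was taken after a 4 h fast at day −1 and days 8, 15, 22 and 29. ANGPTL3 was measured by ELISA and lipids by clinical analyzer, each normalised to the animal's pre-dose level and then to the D5W group mean.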
# ANGPTL3 gene [2] = assay: Example 3: serum total cholesterol in mice; assay type: in vivo
# Description: (§2) To assess the in vivo activity of ANGPTL3 RNAi agents that are designed to target positions 921 and 922 on the ANGPTL3 gene, six- to eight-week-old female C57bl/6 mice were used. Pre-dose serum samples were taken at day −1 after a four hour fast. At day 1, each mouse was given a single subcutaneous administration of 200 μl containing either 1 mg/kg (mpk) of an ANGPTL3 RNAi agent in D5W (dextrose in 5% water), or control (D5W) with no RNAi agent, according to the dosing groups recited in Table 12.
# Each of the RNAi agents included a modified sequence and an N-acetyl-galactosamine-containing targeting ligand conjugated to the 5′ terminal end of the sense strand. (See Tables 3, 4, and 5 for modified sequences and targeting ligand structures). The injections were performed between the skin and muscle (i.e. subcutaneous injections) into the loose skin over the neck and shoulder area. Three (3) mice in each group were tested (n=3). […] Mice were fasted for four hours prior to each collection. ANGPTL3 protein levels in serum were measured by ELISA assay (R&D Systems), according to the manufacturer's recommendations. Triglycerides, high-density lipoprotein (HDL), and total cholesterol in serum were measured on a Cobas® Integra 400 (Roche Diagnostics), according to the manufacturer's recommendations.
# (§3) The ANGPTL3 protein levels, triglyceride levels, HDL levels, and total cholesterol levels for each animal were normalized. For normalization, the level of ANGPTL3 protein, triglyceride, HDL, and total cholesterol, respectively, for each animal at a time point, was divided by the pre-treatment level of expression in that animal (in this case at day −1) to determine the ratio of expression “normalized to pre-treatment.” Expression at a specific time point was then normalized to the D5W control group by dividing the “normalized to pre-treatment” ratio for an individual animal by the mean “normalized to pretreatment” ratio of all mice in the D5W control group.
# ANGPTL3 protein = assay: Example 7: serum ANGPTL3 protein by ELISA in mice; assay type: in vivo, C57bl/6 mice; parameters: key: ratio: (level/pre-treatment day -1 level) ÷ mean of D5W control group
# How it was run: as §1
# ANGPTL3 gene [3] = assay: Example 7: serum HDL in mice; assay type: in vivo; parameters: key: ratio: (level/pre-treatment day -1 level) ÷ mean of D5W control group; conditions: 0.5 mg/kg single SC injection day 1, female C57bl/6 mice, n=3, ratio to D5W control
# How it was run: as §1
# ANGPTL3 gene [4] = assay: Example 7: serum LDL in mice; assay type: in vivo; parameters: key: ratio: (level/pre-treatment day -1 level) ÷ mean of D5W control group; conditions: 0.5 mg/kg single SC injection day 1, female C57bl/6 mice, n=3, ratio to D5W control
# How it was run: as §1
# ANGPTL3 gene [5] = assay: Example 4: serum HDL in mice; assay type: in vivo, C57bl/6 mice
# Description: as §2, with “target additional” for “target”, “positions” for “positions 921 and 922”, “(mpk) or 0.5 mg/kg (mpk)” for “(mpk)”, “17.” for “12.”
# Each of the RNAi agents included a modified sequence and an N-acetyl-galactosamine-containing targeting ligand conjugated to the 5′ terminal end of the sense strand. (See Tables 3, 4, and 5 for modified sequences and targeting ligand structures). The injections were performed between the skin and muscle (i.e. subcutaneous injections) into the loose skin over the neck and shoulder area. Three (3) mice in each group were tested (n=3). Serum was collected on days 8, 15, 22, 29, and day 43 (Groups 1-3, 9, and 11-13 only). Mice were fasted for four hours prior to each collection. ANGPTL3 protein levels in serum were measured by ELISA assay (R&D Systems), according to the manufacturer's recommendations. Triglycerides, high-density lipoprotein (HDL), and total cholesterol in serum were measured on a Cobas® Integra 400 (Roche Diagnostics), according to the manufacturer's recommendations.
# as §3
# [6] = Day 8, 0.5 mg/kg single SC injection on day 1, n=3
# [7] = Day 15, 0.5 mg/kg single SC injection on day 1, n=3
# [8] = Day 22, 0.5 mg/kg single SC injection on day 1, n=3
# [9] = Day 29, 0.5 mg/kg single SC injection on day 1, n=3
substance,measurement,setting,value
"AD05418: RNAi agent duplex: antisense AM07159-AS, sense AM07158-SS (antisense mU*fU*mU*fGmAfAmUfUmAfAmUfGmUfCmCfAmUfGmGfG*mU; sense {NAG37}*[invAb]*mAmCmCmCmAmUmGmGfAfCfAmUmUmAmAmUmUmCmAmAmA*[invAb])","Avg TG, normalized to pre-treatment and control",ANGPTL3 gene [1]; [6],0.830
same,"Avg TG, normalized to pre-treatment and control",ANGPTL3 gene [1]; [7],0.655
same,"Avg TG, normalized to pre-treatment and control",ANGPTL3 gene [1]; [8],0.815
same,"Avg TG, normalized to pre-treatment and control",ANGPTL3 gene [1]; [9],0.586
same,Avg Total Chol (Average Total Cholestrol Normalized to Pre-Treatment and Control),"ANGPTL3 gene [2]; Day 8, 1.0 mg/kg single subcutaneous dose on day 1, female C57bl/6 mice",0.783
same,Avg Total Chol (Average Total Cholestrol Normalized to Pre-Treatment and Control),"ANGPTL3 gene [2]; Day 15, 1.0 mg/kg single subcutaneous dose on day 1, female C57bl/6 mice",0.842
same,Avg Total Chol (Average Total Cholestrol Normalized to Pre-Treatment and Control),"ANGPTL3 gene [2]; Day 22, 1.0 mg/kg single subcutaneous dose on day 1, female C57bl/6 mice",0.916
same,Avg Total Chol (Average Total Cholestrol Normalized to Pre-Treatment and Control),"ANGPTL3 gene [2]; Day 29, 1.0 mg/kg single subcutaneous dose on day 1, female C57bl/6 mice",0.953
same,"Avg ANGPTL3, normalized to pre-treatment and control",ANGPTL3 protein; [6],0.534
same,"Avg ANGPTL3, normalized to pre-treatment and control",ANGPTL3 protein; [7],0.565
same,"Avg ANGPTL3, normalized to pre-treatment and control",ANGPTL3 protein; [8],0.639
same,"Avg ANGPTL3, normalized to pre-treatment and control",ANGPTL3 protein; [9],0.758
same,"Avg HDL, normalized to pre-treatment and control",ANGPTL3 gene [3]; Day 8,0.907
same,"Avg HDL, normalized to pre-treatment and control",ANGPTL3 gene [3]; Day 15,0.857
same,"Avg HDL, normalized to pre-treatment and control",ANGPTL3 gene [3]; Day 22,0.910
same,"Avg HDL, normalized to pre-treatment and control",ANGPTL3 gene [3]; Day 29,1.048
same,"Avg LDL, normalized to pre-treatment and control",ANGPTL3 gene [4]; Day 8,1.160
same,"Avg LDL, normalized to pre-treatment and control",ANGPTL3 gene [4]; Day 15,0.928
same,"Avg LDL, normalized to pre-treatment and control",ANGPTL3 gene [4]; Day 22,0.950
same,"Avg LDL, normalized to pre-treatment and control",ANGPTL3 gene [4]; Day 29,1.131
same,"Avg HDL, normalized to pre-treatment and control","ANGPTL3 gene [5]; Day 8, 1.0 mg/kg single SC injection on day 1, n=3",0.828
same,"Avg HDL, normalized to pre-treatment and control","ANGPTL3 gene [5]; Day 15, 1.0 mg/kg single SC injection on day 1, n=3",0.730
same,"Avg HDL, normalized to pre-treatment and control","ANGPTL3 gene [5]; Day 22, 1.0 mg/kg single SC injection on day 1, n=3",0.846
same,"Avg HDL, normalized to pre-treatment and control","ANGPTL3 gene [5]; Day 29, 1.0 mg/kg single SC injection on day 1, n=3",0.845
same,"Avg HDL, normalized to pre-treatment and control","ANGPTL3 gene [5]; Day 43, 1.0 mg/kg single SC injection on day 1, n=3",1.018
